Data taken from US20140024527A1, “HERBICIDAL PYRAZINONES” (E I DU DE NEMOURS AND COMPANY, priority 2011, published 2014).

Columns and labels:
Assay type in all cases: in vivo
[1] = system: barnyardgrass (Echinochloa crus-galli); test: Test B flooded paddy test; conditions: Flood
Description: (§1) Plant species in the flooded paddy test consisted of rice (Oryza sativa), umbrella sedge (Cyperus difformis), ducksalad (Heteranthera limosa) and barnyardgrass (Echinochloa crus-galli) grown to the 2-leaf stage for testing. At time of treatment, test pots were flooded to 3 cm above the soil surface, treated by application of test compounds directly to the paddy water, and then maintained at that water depth for the duration of the test. Treated plants and controls were maintained in a greenhouse for 13 to 15 days, after which time all species were compared to controls and visually evaluated. Plant response ratings, summarized in Table B, are based on a scale of 0 to 100 where 0 is no effect and 100 is complete control. A dash (-) response means no test result.

[2] = system: umbrella sedge (Cyperus difformis); test: Test B flooded paddy test; conditions: Flood, scale 0 to 100
Description: as §1

rice (Oryza sativa) = test: Test B flooded paddy test; conditions: Flood, scale 0 to 100
Description: as §1

[3] = system: ducksalad (Heteranthera limosa); test: Test B flooded paddy test; conditions: Flood, scale 0 to 100
Description: as §1

[4] = system: large crabgrass (Digitaria sanguinalis); test: Test A postemergence; conditions: 0 to 100 scale, 0 no effect, 100 complete control, approx. 10 days
Description: (§2) Seeds of barnyardgrass (Echinochloa crus-galli), large crabgrass (Digitaria sanguinalis), giant foxtail (Setaria faberii), morningglory (Ipomoea spp.), pigweed (Amaranthus retroflexus), velvetleaf (Abutilon theophrasti), wheat (Triticum aestivum) and corn (Zea mays) were planted into a blend of loam soil and sand and treated preemergence with a directed soil spray using test chemicals formulated in a non-phytotoxic solvent mixture which included a surfactant. At the same time these species were also treated with postemergence applications of test compounds formulated in the same manner. Plants ranged in height from 2 to 10 cm and were in the one- to two-leaf stage for the postemergence treatments. Treated plants and untreated controls were maintained in a greenhouse for approximately 10 days, after which time all treated plants were compared to untreated controls and visually evaluated for injury. Plant response ratings, summarized in Table A, are based on a 0 to 100 scale where 0 is no effect and 100 is complete control.

corn (Zea mays) [5] = test: Test A postemergence; conditions: 0 to 100 scale, 0 no effect, 100 complete control, approx. 10 days
Description: as §2

[6] = system: pigweed (Amaranthus retroflexus); test: Test A postemergence; conditions: 0 to 100 scale, 0 no effect, 100 complete control, approx. 10 days
Description: as §2

[7] = system: barnyardgrass (Echinochloa crus-galli); test: Test A postemergence; conditions: 0 to 100 scale, 0 no effect, 100 complete control, approx. 10 days
Description: as §2

[8] = system: velvetleaf (Abutilon theophrasti); test: Test A postemergence; conditions: 0 to 100 scale, 0 no effect, 100 complete control, approx. 10 days
Description: as §2

[9] = system: wheat (Triticum aestivum); test: Test A postemergence; conditions: 0 to 100 scale, 0 no effect, 100 complete control, approx. 10 days
Description: as §2

[10] = system: giant foxtail (Setaria faberii); test: Test A postemergence; conditions: 0 to 100 scale, 0 no effect, 100 complete control, approx. 10 days
Description: as §2

[11] = system: morningglory (Ipomoea spp.); test: Test A postemergence; conditions: 0 to 100 scale, 0 no effect, 100 complete control, approx. 10 days
Description: as §2

[12] = system: large crabgrass (Digitaria sanguinalis); test: Test A preemergence; conditions: 0 to 100 scale, 0 no effect, 100 complete control, approx. 10 days
Description: as §2

corn (Zea mays) [13] = test: Test A preemergence; conditions: 0 to 100 scale, 0 no effect, 100 complete control, approx. 10 days
Description: as §2

[14] = system: pigweed (Amaranthus retroflexus); test: Test A preemergence; conditions: 0 to 100 scale, 0 no effect, 100 complete control, approx. 10 days
Description: as §2

[15] = system: barnyardgrass (Echinochloa crus-galli); test: Test A preemergence; conditions: 0 to 100 scale, 0 no effect, 100 complete control, approx. 10 days
Description: as §2

[16] = system: velvetleaf (Abutilon theophrasti); test: Test A preemergence; conditions: 0 to 100 scale, 0 no effect, 100 complete control, approx. 10 days
Description: as §2

[17] = system: wheat (Triticum aestivum); test: Test A preemergence; conditions: 0 to 100 scale, 0 no effect, 100 complete control, approx. 10 days
Description: as §2

[18] = system: giant foxtail (Setaria faberii); test: Test A preemergence; conditions: 0 to 100 scale, 0 no effect, 100 complete control, approx. 10 days
Description: as §2

[19] = system: morningglory (Ipomoea spp.); test: Test A preemergence; conditions: 0 to 100 scale, 0 no effect, 100 complete control, approx. 10 days
Description: as §2

**Q.** With `COCCn1c(-c2cc(F)cc(F)c2)cnc(C(=O)C2=C(O)CCCC2=O)c1=O` [Compound 5, 6-(3,5-difluorophenyl)-3-[(2-hydroxy-6-oxo-1-cyclohexen-1-yl)carbonyl]-1-(2-methoxyethyl)-2(1H)-pyrazinone] as the compound, how does the “Plant response rating, Barnyardgrass” value ([1]; 31 g ai/ha, scale 0 to 100) read?
**A.** Its value is 0.

**Q.** And the “Plant response rating, Barnyardgrass” value ([1]; 62 g ai/ha, scale 0 to 100)?
**A.** The value was 0.

**Q.** What about the “Plant response rating, Barnyardgrass” value ([1]; 125 g ai/ha, scale 0 to 100) of the same compound?
**A.** Its value is 25.

**Q.** And the “Plant response rating, Barnyardgrass” value ([1]; 250 g ai/ha, scale 0 to 100 (0 no effect, 100 complete control))?
**A.** The value was 80.

**Q.** What about the “Plant response rating, Sedge, Umbrella” value ([2]; 31 g ai/ha) of the same compound?
**A.** The value was 50.

**Q.** And the “Plant response rating, Sedge, Umbrella” value ([2]; 62 g ai/ha)?
**A.** Its value is 70.

**Q.** What about the “Plant response rating, Sedge, Umbrella” value ([2]; 125 g ai/ha) of the same compound?
**A.** The value was 90.

**Q.** And the “Plant response rating, Sedge, Umbrella” value ([2]; 250 g ai/ha)?
**A.** The value was 100.

**Q.** And the “Plant response rating, Rice” value (rice (Oryza sativa); 31 g ai/ha)?
**A.** Its value is 0.

**Q.** What about the “Plant response rating, Rice” value (rice (Oryza sativa); 62 g ai/ha) of the same compound?
**A.** The value was 0.

**Q.** What about the “Plant response rating, Rice” value (rice (Oryza sativa); 125 g ai/ha) of the same compound?
**A.** Its value is 10.

**Q.** What about the “Plant response rating, Rice” value (rice (Oryza sativa); 250 g ai/ha) of the same compound?
**A.** Its value is 20.

**Q.** And the “Plant response rating, Ducksalad” value ([3]; 31 g ai/ha)?
**A.** Its value is 0.

**Q.** And the “Plant response rating, Ducksalad” value ([3]; 62 g ai/ha)?
**A.** The value was 40.

**Q.** What about the “Plant response rating, Ducksalad” value ([3]; 125 g ai/ha) of the same compound?
**A.** Its value is 60.

**Q.** What about the “Plant response rating, Ducksalad” value ([3]; 250 g ai/ha) of the same compound?
**A.** The value was 90.

**Q.** What about the “Plant response rating, Crabgrass, Large” value ([4]; 31 g ai/ha) of the same compound?
**A.** The value was 70.

**Q.** And the “Plant response rating, Crabgrass, Large” value ([4]; 125 g ai/ha)?
**A.** Its value is 90.

**Q.** And the “Plant response rating, Crabgrass, Large” value ([4]; 500 g ai/ha)?
**A.** Its value is 90.

**Q.** What about the “Plant response rating, Corn” value (corn (Zea mays) [5]; 31 g ai/ha) of the same compound?
**A.** The value was 10.

**Q.** What about the “Plant response rating, Corn” value (corn (Zea mays) [5]; 125 g ai/ha) of the same compound?
**A.** Its value is 50.

**Q.** And the “Plant response rating, Corn” value (corn (Zea mays) [5]; 500 g ai/ha)?
**A.** Its value is 60.

**Q.** What about the “Plant response rating, Pigweed” value ([6]; 31 g ai/ha) of the same compound?
**A.** The value was 80.

**Q.** What about the “Plant response rating, Pigweed” value ([6]; 125 g ai/ha) of the same compound?
**A.** Its value is 100.

**Q.** And the “Plant response rating, Pigweed” value ([6]; 500 g ai/ha)?
**A.** The value was 100.

**Q.** What about the “Plant response rating, Barnyardgrass” value ([7]; 31 g ai/ha) of the same compound?
**A.** The value was 50.

**Q.** And the “Plant response rating, Barnyardgrass” value ([7]; 125 g ai/ha)?
**A.** Its value is 90.

**Q.** What about the “Plant response rating, Barnyardgrass” value ([7]; 500 g ai/ha) of the same compound?
**A.** The value was 90.

**Q.** And the “Plant response rating, Velvetleaf” value ([8]; 31 g ai/ha)?
**A.** Its value is 70.

**Q.** And the “Plant response rating, Velvetleaf” value ([8]; 125 g ai/ha)?
**A.** The value was 80.

**Q.** What about the “Plant response rating, Velvetleaf” value ([8]; 500 g ai/ha) of the same compound?
**A.** The value was 100.

**Q.** And the “Plant response rating, Wheat” value ([9]; 31 g ai/ha)?
**A.** Its value is 0.

**Q.** And the “Plant response rating, Wheat” value ([9]; 125 g ai/ha)?
**A.** The value was 30.

**Q.** And the “Plant response rating, Wheat” value ([9]; 500 g ai/ha)?
**A.** Its value is 30.

**Q.** And the “Plant response rating, Foxtail, Giant” value ([10]; 31 g ai/ha)?
**A.** Its value is 30.

**Q.** What about the “Plant response rating, Foxtail, Giant” value ([10]; 125 g ai/ha) of the same compound?
**A.** The value was 60.

**Q.** And the “Plant response rating, Foxtail, Giant” value ([10]; 500 g ai/ha)?
**A.** Its value is 80.

**Q.** What about the “Plant response rating, Morningglory” value ([11]; 31 g ai/ha) of the same compound?
**A.** Its value is 80.

**Q.** What about the “Plant response rating, Morningglory” value ([11]; 125 g ai/ha) of the same compound?
**A.** The value was 90.

**Q.** What about the “Plant response rating, Morningglory” value ([11]; 500 g ai/ha) of the same compound?
**A.** Its value is 90.

**Q.** And the “Plant response rating, Crabgrass, Large” value ([12]; 31 g ai/ha)?
**A.** Its value is 20.

**Q.** And the “Plant response rating, Crabgrass, Large” value ([12]; 125 g ai/ha)?
**A.** The value was 100.

**Q.** What about the “Plant response rating, Crabgrass, Large” value ([12]; 500 g ai/ha) of the same compound?
**A.** The value was 100.

**Q.** What about the “Plant response rating, Corn” value (corn (Zea mays) [13]; 31 g ai/ha) of the same compound?
**A.** Its value is 0.

**Q.** What about the “Plant response rating, Corn” value (corn (Zea mays) [13]; 125 g ai/ha) of the same compound?
**A.** The value was 0.

**Q.** What about the “Plant response rating, Corn” value (corn (Zea mays) [13]; 500 g ai/ha) of the same compound?
**A.** Its value is 0.

**Q.** What about the “Plant response rating, Pigweed” value ([14]; 31 g ai/ha) of the same compound?
**A.** The value was 40.

**Q.** And the “Plant response rating, Pigweed” value ([14]; 125 g ai/ha)?
**A.** Its value is 90.

**Q.** What about the “Plant response rating, Pigweed” value ([14]; 500 g ai/ha) of the same compound?
**A.** Its value is 90.

**Q.** And the “Plant response rating, Barnyardgrass” value ([15]; 31 g ai/ha)?
**A.** The value was 0.

**Q.** What about the “Plant response rating, Barnyardgrass” value ([15]; 125 g ai/ha) of the same compound?
**A.** Its value is 50.

**Q.** What about the “Plant response rating, Barnyardgrass” value ([15]; 500 g ai/ha) of the same compound?
**A.** The value was 80.

**Q.** And the “Plant response rating, Velvetleaf” value ([16]; 31 g ai/ha)?
**A.** Its value is 30.

**Q.** What about the “Plant response rating, Velvetleaf” value ([16]; 125 g ai/ha) of the same compound?
**A.** The value was 70.

**Q.** What about the “Plant response rating, Velvetleaf” value ([16]; 500 g ai/ha) of the same compound?
**A.** The value was 80.

**Q.** And the “Plant response rating, Wheat” value ([17]; 31 g ai/ha)?
**A.** Its value is 0.

**Q.** What about the “Plant response rating, Wheat” value ([17]; 125 g ai/ha) of the same compound?
**A.** The value was 0.

**Q.** What about the “Plant response rating, Wheat” value ([17]; 500 g ai/ha) of the same compound?
**A.** Its value is 0.

**Q.** What about the “Plant response rating, Foxtail, Giant” value ([18]; 31 g ai/ha) of the same compound?
**A.** Its value is 20.

**Q.** What about the “Plant response rating, Foxtail, Giant” value ([18]; 125 g ai/ha) of the same compound?
**A.** Its value is 70.

**Q.** And the “Plant response rating, Foxtail, Giant” value ([18]; 500 g ai/ha)?
**A.** Its value is 80.

**Q.** And the “Plant response rating, Morningglory” value ([19]; 31 g ai/ha)?
**A.** Its value is 0.

**Q.** What about the “Plant response rating, Morningglory” value ([19]; 125 g ai/ha) of the same compound?
**A.** Its value is 40.

**Q.** What about the “Plant response rating, Morningglory” value ([19]; 500 g ai/ha) of the same compound?
**A.** Its value is 80.
